Data reported in US12313613B2, “Method of testing crystallinity in amorphous pharmaceutical compositions” (ColVisTec AG, priority 2019, dated 2025).

How the values were obtained:
Type in all cases: physicochemical
[1] = Particle size distribution of the components (Mastersizer laser diffraction)
Experimental: In some cases, the particle size of the dispersion or solution is measured prior to being subjected to UV/vis spectroscopy. Known methods of sizing the dispersion or solution include sieve analysis, direct imaging and laser diffraction. In the present disclosure, a Mastersizer (Malvern Instruments) laser diffraction device was used.

[2] = Off-line XRD crystallinity detection of PRX / Kollidon VA64 mixtures (Bruker instrument); details: in Kollidon VA64, milled samples, no crystallinity detected at 25 wt %
Experimental: The samples were analysed by a UV/vis spectrometer in transmission mode (FIG. 1) and an XRD spectrum of the same samples was also obtained for comparison and verification (FIG. 2). The XRD samples required milling and analysis offline whereas UV/vis has the advantages that it can be performed rapidly in-line without milling.
XRD spectra were obtained on a Bruker instrument for each of pure solid PRX, Kollidon VA64, and 20, 25 and 30 wt % PRX mixtures separately. […] Only at 30 wt % PRX loading, well above the maximum solubility when there is substantially higher crystallinity, does the XRD spectra first show peaks that correlate with the pure XRD spectra of PRX.

[3] = In-line UV/vis transmission crystallinity detection of piroxicam in Kollidon VA64 (solubility maximum, twin-screw extruder); details: in Kollidon VA64, hot melt extrusion, amorphous, homogeneous and transparent below this loading
Source text: A twin-screw extruder was used to assess the solubility maximum for a mixture of the non-steroidal anti-inflammatory drug (NSAID) piroxicam (PRX) and the carrier polymer Kollidon VA64. The mixture was continuously analysed while traversing the extruder screw using a system of in-line UV/vis spectrometers and the input of the PRX was adjusted until crystallinity was first detected.
UV/vis transmission spectra were obtained for 15, 18, 20, 23 and 25 wt % PRX samples.

Row | SMILES | D10 [1] [μm] | D50 [1] [μm] | D90 [1] [μm] | PRX loading at which XRD spectra first show peaks of crystalline PRX [2] [wt %] | PRX loading at which the first microcrystalline domains are observed (solubility maximum in carrier) [3] [wt %]
1 | Cc1cc(C#N)cc(C)c1Oc1nc(Nc2ccc(C#N)cc2)nc(N)c1Br [crystalline etravirine (ETR), 4-[6-amino-5-bromo-2-(4-cyanoanilino)pyrimidin-4-yl]oxy-3,5-dimethylbenzonitrile] | 8 | 26 | 87 | – | –
2 | CN1C(C(=O)Nc2ccccn2)=C(O)c2ccccc2S1(=O)=O [PRX, 4-hydroxy-2-methyl-1,1-dioxo-N-pyridin-2-yl-1$1^6,2-benzothiazine-3-carboxamide] | – | – | – | 30 | 25
